Laboratory results reported in patent US10105395B2, “Microvesicles (MVs) derived from adult stem cells for use in the therapeutic treatment of a tumor disease” (Fresenius Medical Care Deutschland GmbH, priority 2010, dated 2018).

Tests used:
Assay type in all cases: cell-based, human
[1] = test system: HepG2 hepatoma cell line; test: TUNEL apoptosis assay, MVs from HLSCs; conditions: MVs 30 μg/ml; vincristine 100 ng/ml; 24 hours
Description: Apoptosis was evaluated using the terminal dUTP nickend labeling assay (ApoTag; Oncor, Gaithersburg, Md.). Cells ([…]) were cultured in 96-well plate, suspended in phosphate-buffered saline (PBS) and fixed in 1% paraformaldehyde in PBS, pH 7.4, for 15 minutes at 4° C. followed by pre-cooled ethanol/acetic acid (2:1) for 5 minutes at −20° C. Cells were treated with terminal deoxynucleotide transferase enzyme and incubated in a humidified chamber for 1 hour at 37° C. and then treated with warmed fluorescein isothiocyanate-conjugated antidigoxigenin for 30 minutes at room temperature. After washing, samples were mounted in a medium containing […] of propidium iodide and the cells were analyzed by immunofluorescence.
The ability of HLSC-derived MVs to induce apoptosis on HepG2 was evaluated. Briefly, HepG2 were seeded at a density of 8,000 cells/well into 96-well plates in DMEM with 10% FCS and apoptosis was induced by culture in the absence of FCS, by treatment with vincristine (100 ng/ml), or doxorubicin (50 ng/ml), two mitotic inhibitors used in cancer chemotherapy, or by MV treatment (30 μg/ml). […] Apoptosis was evaluated using the TUNEL assay analysis at […].

[2] = test system: HepG2 cells; test: TUNEL apoptotic assay, MVs from MSCs; conditions: 24 and 48 hours, compared to vehicle alone; doxorubicin 100 ng/ml
Description: (§1) HepG2, MCF-7, SKOV-3, KS cells, HUVECs or TECs were seeded at 8,000 cells/well into 96-well plated in DMEM (Sigma) with 10% FCS and in the presence of doxorubicin (100 ng/ml, Sigma) or different concentrations of MVs (10 and 30 μg/ml) pre-treated or not with RNase. Apoptosis was assessed by TUNEL assay (ApopTag Oncor, Gaithersburg, Md., USA). After 24 or 48 hours of treatment, the cells were washed with PBS, fixed in 1% paraformaldehyde pH 7.4 for 15 minutes at 4° C., washed twice in PBS and then post-fixed in pre-cooled ethanol-acetic acid 2:1 for 5 minutes at −20° C. The samples were treated with the enzyme terminal deoxynucleotidyl transferase (TdT). The cells were then treated with heated anti-digoxigenin conjugate with fluorescein and incubated for 30 minutes at room temperature. The samples were mounted in medium containing 1 μg/ml of propidium iodide and the cells analyzed by immunofluorescence. The results are expressed as the percentage of green fluorescence emitting cells (apoptotic cells) versus red fluorescence emitting cells (total cells).

[3] = test system: KS cells (Kaposi's sarcoma cells); test: TUNEL apoptotic assay, MVs from MSCs; conditions: 24 and 48 hours, compared to vehicle alone; doxorubicin 100 ng/ml
Description: as §1

Compound | HepG2 apoptosis (TUNEL assay) [1] | apoptosis of HepG2 cells (Tunel assay) [2] | apoptosis of KS cells (Tunel assay) [3]
CC[C@]1(O)C[C@H]2CN(CCc3c([nH]c4ccccc34)[C@@](C(=O)OC)(c3cc4c(cc3OC)N(C=O)[C@H]3[C@@](O)(C(=O)OC)[C@H](OC(C)=O)[C@]5(CC)C=CCN6CC[C@]43[C@@H]65)C2)C1 [vincristine] | induced by vincristine |  | 
COc1cccc2c1C(=O)c1c(O)c3c(c(O)c1C2=O)C[C@@](O)(C(=O)CO)C[C@@H]3O[C@H]1C[C@H](N)[C@H](O)[C@H](C)O1 [doxorubicin] |  | apoptosis induced by doxorubicin | apoptosis induced by doxorubicin
